In patent US8557812B2, “Small molecule inhibitors of anti-apoptotic BCL-2 family members and the uses thereof” (The Regents of the University of Michigan, priority 2004, dated 2013) one finds IC50 data, which are given here for 38 compounds.

Test [1] deals with Bcl-2 (Homo sapiens, UniProt P10415). Briefly: Fluorescence polarization in vitro Bcl-2 binding assay. The protocol: Bcl-2 used in this assay is a recombinant His-fused soluble protein. […] Inc., Research Triangle Park, N.C.). […] The unlabeled Bid peptide is used as the positive control. The Ki values were calculated using our developed equation for FP assay (Nikolovska-Coleska et al., Anal. Biochem., 2004, in press). The program for calculating a Ki value is available free of charge via the Internet at http://sw16.im.med.umich.edu/software/calc_ki/.
Background: Fluorescence polarisation rises when a labelled molecule tumbles more slowly, as on binding a larger partner.

The target in test [2] is human Bcl-xL (Homo sapiens, UniProt Q07817). Briefly: Fluorescence polarization in vitro Bcl-xL binding assay. Conditions: displacement of Flu-Bak peptide. From the text:
For determination of the binding affinity to Bcl-xL protein a human Bcl-xL recombinant His-tagged protein without the C-terminus hydrophobic tail and the Bak-16mer BH3 peptide labeled with 6-carboxyfluorescein succinimidyl ester (FAM) were used.

SMILES strings stand for the structures.

human Bcl-xL, sequence (Q07817 1-209 limits assumed): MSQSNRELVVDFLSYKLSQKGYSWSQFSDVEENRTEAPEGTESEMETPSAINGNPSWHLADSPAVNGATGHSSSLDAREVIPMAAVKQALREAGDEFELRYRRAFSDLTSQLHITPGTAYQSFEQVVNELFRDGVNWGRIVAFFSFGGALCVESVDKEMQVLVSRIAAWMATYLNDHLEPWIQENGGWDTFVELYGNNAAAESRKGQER
Bcl-2, sequence (P10415 92-205 limits assumed): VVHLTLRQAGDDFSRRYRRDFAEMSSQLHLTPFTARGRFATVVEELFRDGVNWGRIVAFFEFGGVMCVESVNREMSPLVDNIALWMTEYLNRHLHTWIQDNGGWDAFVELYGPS

A word on the IC50: it is the concentration needed to halve the response being measured. With `CN(CCc1ccccc1)S(=O)(=O)c1ccc2c(c1)CN(C(=O)c1cc(S(=O)(=O)N3CCc4ccccc4C3)c(O)c(O)c1O)CC2` [TM-1207], the IC50 is not above 1000 nM in test [1] and more than 1000 nM in test [2]. For `O=C(c1cc(C(=O)c2cccc3ccccc23)c(O)c(O)c1O)c1cccc2ccccc12` [TM-174] the same measures were more than 1000 nM and more than 1000 nM. For `CCC(CC)CNS(=O)(=O)c1ccc2c(c1)CN(C(=O)c1cc(S(=O)(=O)N3CCc4ccccc4C3)c(O)c(O)c1O)CC2` [TM-1216] the same measures were not above 1000 nM and more than 1000 nM. For `CC(C)c1cc(Cc2ccc(Oc3ccccc3)cc2)c(O)c(O)c1O` [TM-159], the IC50 in test [2] was more than 1000 nM.

On to `O=C(c1ccc(Oc2ccc(S(=O)(=O)N3CCCCC3)c(Cl)c2)cc1)c1cc(C(=O)c2nc3ccccc3s2)c(O)c(O)c1O` [TM-180], for which the IC50 in test [2] is more than 1000 nM. Regarding `O=C(c1ccc(Oc2ccccc2)cc1)c1cc(C(=O)c2nc3ccccc3s2)c(O)c(O)c1O` [TM-179], the IC50 in test [2] is more than 1000 nM. `O=C(c1cc(S(=O)(=O)N2CCc3ccc(S(=O)(=O)N4CCCCC4)cc3C2)c(O)c(O)c1O)N1CCc2ccccc2C1` [TM-190]: the IC50 in test [1] was not above 1000 nM; in test [2] it was more than 1000 nM.

On to `CN(Cc1ccccc1)S(=O)(=O)c1cc(C(=O)N2CCc3ccc(S(=O)(=O)NCCc4ccccc4)cc3C2)c(O)c(O)c1O` [TM-1201], for which the IC50 in test [1] and in test [2] was more than 1000 nM throughout. For `O=C(c1cc(S(=O)(=O)N2CCc3ccccc3C2)c(O)c(O)c1O)N1CCc2ccc(S(=O)(=O)NCCCc3ccccc3)cc2C1` [TM-1213], the figures for the IC50 in test [1] and in test [2] were not above 1000 nM and more than 1000 nM, respectively. Taken in the same sequence, the figures for `CNS(=O)(=O)c1ccc2c(c1)CN(C(=O)c1cc(S(=O)(=O)N3CCc4ccccc4C3)c(O)c(O)c1O)CC2` [TM-1215] were more than 1000 nM and more than 1000 nM.

For `O=C(c1cc(S(=O)(=O)N2CCc3ccccc3C2)c(O)c(O)c1O)N1CCc2ccc(S(=O)(=O)NCCc3ccc(Cl)cc3)cc2C1` [TM-1209], the values for the IC50 in test [1] and in test [2] were not above 1000 nM and more than 1000 nM, respectively. Taken in the same sequence, the figures for `O=C(c1cc(S(=O)(=O)N2CCc3ccccc3C2)c(O)c(O)c1O)N1CCc2ccc(S(=O)(=O)N3CCC(Cc4ccccc4)CC3)cc2C1` [TM-1203] were not above 1000 nM and more than 1000 nM. For `CNS(=O)(=O)c1cc(C(=O)N2CCc3ccc(S(=O)(=O)NCCc4ccccc4)cc3C2)c(O)c(O)c1O` [TM-1217] the same measures were more than 1000 nM and more than 1000 nM. Taken in the same sequence, the figures for `CC(C)CNS(=O)(=O)c1ccc2c(c1)CN(C(=O)c1cc(S(=O)(=O)N3CCc4ccccc4C3)c(O)c(O)c1O)CC2` [TM-194] were more than 1000 nM and more than 1000 nM.

As for `O=C(c1cc(S(=O)(=O)N2CCc3ccccc3C2)c(O)c(O)c1O)N1CCc2ccc(S(=O)(=O)NCCc3ccc(Oc4ccccc4)cc3)cc2C1` [TM-1212], the IC50 in test [1] and in test [2] was more than 1000 nM throughout. Turning to `O=C(c1ccc2ccccc2c1)c1cc(C(=O)c2ccc3ccccc3c2)c(O)c(O)c1O` [TM-175], the IC50 in test [1] and in test [2] was more than 1000 nM each time.

As to `O=C(c1cc(S(=O)(=O)N2CCc3ccccc3C2)c(O)c(O)c1O)N1CCc2ccc(S(=O)(=O)NCCc3cccc(Oc4ccccc4)c3)cc2C1` [TM-1211], the IC50 is not above 1000 nM in test [1] and more than 1000 nM in test [2].

With `O=C(c1cc(S(=O)(=O)N2CCc3ccccc3C2)c(O)c(O)c1O)N1CCc2ccccc2C1` [TM-1214], the half-maximal inhibitory concentration (IC50) in test [1] and in test [2] was more than 1000 nM each time. `Oc1c(CCCc2ccccc2)cc(Cc2ccc(Oc3ccccc3)cc2)c(O)c1O` [TM-163]: the IC50 in test [2] was more than 1000 nM. The same measure, in the same setting: with `Oc1ccc(Cc2ccc(Oc3ccccc3)cc2)c(O)c1O` [TM-157] the figure was more than 1000 nM. In the case of `O=C(c1cc(S(=O)(=O)N2CCc3ccccc3C2)c(O)c(O)c1O)N1CCc2ccc(S(=O)(=O)NCc3ccccc3)cc2C1` [TM-196], the IC50 in test [1] and in test [2] was more than 1000 nM throughout. For the compound `COc1c(C(=O)C2N=C3C=CC=CC3S2)cc(C(=O)C2N=C3C=CC=CC3S2)c(O)c1O` (centres unmarked) [TM-178], the IC50 in test [1] and in test [2] was more than 1000 nM throughout. As for `CC(C)(C)c1ccc(-c2cc(Cc3ccccc3)c(O)c(O)c2O)cc1` [TW-3, 5-Benzyl-4′-tert-butyl-biphenyl-2,3,4-triol], the half-inhibitory concentration (IC50) in test [1] was more than 1000 nM.

With `O=C(c1cc(S(=O)(=O)N2CCc3ccccc3C2)c(O)c(O)c1O)N1CCc2ccc(S(=O)(=O)Nc3ccccc3)cc2C1` [TM-195], the IC50 in test [1] and in test [2] was more than 1000 nM each time. The compound `CC(C)(C)c1ccc(CCc2cc(O)c(O)c(C(=O)Nc3ccc(S(=O)(=O)N4CCN(c5ccccc5)CC4)cc3)c2)cc1` [TW-167] registered an IC50 in test [1] of more than 1000 nM.

The compound `O=C(Nc1ccc(S(=O)(=O)N2CCN(c3ccccc3)CC2)cc1)c1cc(S(=O)(=O)N2CCc3ccccc3C2)cc(O)c1O` [TW-163] came in with an IC50 in test [1] of more than 1000 nM.

Consider `CCCCCCCCCCCc1ccc(-c2cc(Cc3ccccc3C(C)C)c(O)c(O)c2O)cc1` [TW-14, 5-(2-Isopropyl-benzyl)-4′-undecyl-biphenyl-2,3,4-triol], for which, in test [1], the IC50 was more than 1000 nM. As to `Oc1c(CCc2ccccc2)cc(Cc2ccc(Oc3ccccc3)cc2)c(O)c1O` [TM-162], the IC50 in test [2] was more than 1000 nM. In turn, `CC(C)(C)c1ccc(CCc2cc(O)c(O)c(C(=O)Nc3ccc(S(=O)(=O)N4CCN(c5ncccn5)CC4)cc3)c2)cc1` [TW-169] displayed an IC50 in test [1] not above 1000 nM. Still for that read-out and setting: then `O=C(Nc1ccc(S(=O)(=O)N2CCOCC2)cc1)c1cc(S(=O)(=O)N2CCc3ccccc3C2)cc(O)c1O` [TW-164], with not above 1000 nM; and `O=C(NCCc1ccccc1)c1ccc(C2=Cc3c(c(O)c(O)c(O)c3-c3ccc(-c4ccccc4)cc3)C2=O)cc1` [TW-166], with not above 1000 nM; and `CN(CCCc1ccccc1)S(=O)(=O)c1cc(C(=O)N2CCc3ccc(S(=O)(=O)NCCc4ccccc4)cc3C2)c(O)c(O)c1O` [TM-1206], with not above 1000 nM. `CC(C)CCCc1ccccc1Cc1cc(C(=O)Nc2ccc(S(=O)(=O)c3ccccc3C(C)(C)C)cc2)c(O)c(O)c1O` [TW-42, N-[4-(2-tert-Butyl-benzenesulfonyl)-phenyl]-2,3,4-trihydroxy-5-(2-iso-hexyl-benzyl)-benzamide] yielded an IC50 in test [1] of more than 1000 nM. Compound `O=C(c1ccc(Oc2ccccc2)cc1)c1cc(C(=O)c2nc3ccccc3o2)c(O)c(O)c1O` [TM-183] displayed an IC50 in test [2] of more than 1000 nM. For `O=C(Nc1cc(S(=O)(=O)c2ccc(Cl)cc2)ccc1Cl)c1ccc(O)c(O)c1O` [TW-46, N-[2-Chloro-5-(4-chloro-benzenesulfonyl)-phenyl]-2,3,4-trihydroxy-benzamide], the IC50 in test [1] was not above 1000 nM. The same measure, in the same setting: with `CC(C)(C)c1ccc(CNC(=O)c2cc(CCc3ccccc3)c(O)c(O)c2O)cc1` [TW-25, N-(4-tert-Butyl-benzyl)-2,3,4-trihydroxy-5-phenethyl-benzamide] the figure was more than 1000 nM; with `CC(C)c1cc(-c2ccc(C(C)(C)C)cc2)c(O)c(O)c1O` [TW-4, 4′-tert-Butyl-5-isopropyl-biphenyl-2,3,4-triol], more than 1000 nM; with `CC(C)c1ccccc1Cc1cc(C(=O)Nc2ccccc2)c(O)c(O)c1O` [TW-52, N-Phenyl-2,3,4-trihydroxy-5-(2-iso-propyl-benzyl)-benzamide], more than 1000 nM.
